“Also recorded” adds a separate entry of the source. Like-named read-outs stand apart in the source and are kept apart here.
How the values were obtained:
[1] = tested on: NF-κB activity; assay: NF-κB luciferase reporter assay in MDA-MB-231 cells overexpressing Bcl-3; format: cell-based, human; conditions: for effect on NF-κB activity: 1 μM, 24 hrs, MDA-MB-231 Bcl-3 over-expressing cells, vs DMSO control / Compound 1a; for IC50: Homo sapiens
Method: For NF-κB luciferase assays, cells were seeded into clear bottom black 96-well plates (Corning Inc., Lowell, US) in antibiotic free culture media in appropriate density. After 24 hrs, cells were transfected with 10 ng of 3×κB luciferase plasmid and 10 ng of pcDNA3.1-Lacl plasmid per well. Empty pcDNA3.1 plasmid was also included to normalize the total weight of DNA transfected to 100 ng. For positive and negative controls respectively, 10 ng of pGL3control or pGL3basic were transfected in place of 3×KB luciferase plasmid. Transfection was carried out using Lipofectamine LTX reagents (Invitrogen, Paisley, UK).
After 48 hrs post-transfection with luciferase reporter plasmid, the media was aspirated and cells were lyzed using 50 μl/well of Glo-lysis buffer (Promega, Southampton, UK). The plate was left on a rocker for 20 min to facilitate complete cell lysis. Then, 20 μl of lysate from each well was removed and transferred into a new clear bottom black well plate for measuring LacZ activity as a transfection efficiency control and followed by addition of 20 ul/well of Beta-Glo substrate (Promega, Southampton, UK) and cultivation at room temperature for at least 20 min. Subsequently, 30 μl/well of Bright-Glo luciferase substrate (Promega, Southampton, UK) was added to the original plate and asses immediately for luminescence activity. The luminescence produced from either reaction was read using a Flurostar Optima plate reader (BMG tabtech, Bucks, UK).
The effect of Compound 1a on NF-κB activity was determined by NF-κB luciferase assay in MDA-MB-231 and HEK-293 cells overexpressing Bcl-3 and HEK-293 cells overexpressing p52. Cells were cultivated with Compound 1a over a range of molarities for 24 hrs before being transfected with NF-κB luciferase reporter plasmid for 48 hrs and analyzed for NF-κB activity.
The effect of selected analogues on NF-κB activity was determined by NF-KB luciferase assay in MDA-MB-231 cells. MDA-MB-231 Bcl-3 over-expressing cells were cultivated with compounds from series 1-3 at 1 μM concentration for 24 hrs before being transfected with NF-κB luciferase reporter plasmid for 48 hrs together with controls and analyzed for NF-κB activity.
Based on the results for the series of analogues, we have established dose response curve for selected analogues from series 1 (If), from series 2 (2a and 2c) and from series 3 (3a) over a range of molarities. MDA-MB-231 Bcl-3 WT cells were cultivated with selected compounds from series 1-3 over a range of molarities for 24 hrs before being transfected with NF-κB luciferase reporter plasmid for 48 hrs together with controls and analyzed for NF-κB activity (FIG. 7).

[2] = Cell Titre Blue viability assay, MDA-MB-231; conditions: human, MDA-MB-231 cells
Method: The viability of cells at experimental endpoints for particular assays was determined using the Cell Titre Blue reagent (Promega, Southampton, UK). This reagent measures the cellular metabolic activity using resazurin as an indicator dye. Viable cells, therefore metabolically active, will reduce resazurin into highly fluorescent resofurin. The resulting fluorescence levels are measured and indicate cell viability.
Cells were plated at low confluency into 96 well plates in 100 μl of complete growth media in triplicates and were incubated at 37° C. in 5% CO2 for the desired test exposure period. For each 100 μl of media in 96 well plates, 20 μl Cell Titre Blue reagent was added followed by incubation for an hour at 37° C. in 5% CO2. Fluorescence was then measured by setting excitation/emission wavelengths to 560/590 nm on a Flurostar Optima plate reader (BMG tabtech, Bucks, UK).
Cell toxicity was evaluated using the Cell Titre Blue viability assay over a range of molarities for 24 hrs.
Selected compounds were dissolved in DMSO and diluted to a highest concentration of 10 μM (0.1% DMSO). In all assays, a DMSO control was always used. Selected compounds were tested for cell toxicity in HEK-293 and MDA-MB-231 cells before being used in cell-based assays. Cell toxicity was evaluated using the Cell Titre Blue viability assay over a range of molarities for 24 hrs

[3] = MDA-MB-231 overexpressing Bcl-3, 24 hrs then reporter 48 hrs, read-out: IC50 NF-κB activity
[4] = Table 3, MDA-MB-231, read-out: NF-κB assay (μM) IC50
[5] = MDA-MB-231 Bcl-3 WT, 24 hrs then reporter 48 hrs, read-out: IC50 NF-κB activity

Row | IC50 [1, 3] [µM] | IC50 [1, 4] [µM] | IC50 [1, 5] [µM] | SMILES | effect on NF-κB activity [1] | viability at 24 h, 10 µM [2] [%] | viability at 24 h, 1 mM [2] [%] | EC50 at 24 h [2] [nM]
1 | 0.0494 | 0.0454 | – | O=C(Nc1ccccc1C(=O)NCCN1CCOCC1)c1ccccc1F [Compound 1a, 2-[(2-fluorobenzoyl)amino]-N-(2-morpholin-4-ylethyl)benzamide] | significant decrease; also recorded: most potent suppression of NF-κB activity | > 70 | 72 | –
2 | 0.00697 | 0.00697 | – | COc1ccc(C(=O)Nc2ccccc2C(=O)NCCN2CCOCC2)cc1 [Compound 1f, 2-[(4-methoxybenzoyl)amino]-N-(2-morpholin-4-ylethyl)benzamide] | significant decrease | > 70 | – | 781000
3 | – | 2.5 | 2.5 | O=C(Nc1ccccc1C(=O)NCCCN1CCOCC1)c1ccccc1F [Compound 2a] | significantly decreased NF-κB activity; also recorded: comparable activity with Compound 1a | > 70 | – | –
4 | – | 1.07 | 1.07 | COc1cccc(C(=O)NCCN2CCOCC2)c1NC(=O)c1ccccc1F [Compound 3a, 2-[(2-fluorobenzoyl)amino]-3-methoxy-N-(2-morpholin-4-ylethyl) benzamide] | comparable effect on NF-κB activity with Compound 1a | > 70 | – | –

— patent US20220017478A1, “2-BENZOYLAMINOBENZAMIDE DERIVATIVES AS BCL-3 INHIBITORS” (University College Cardiff Consultants Limited, priority 2013, published 2022)
